Test results from article PMC6138237, “Machine intelligence decrypts β-lapachone as an allosteric 5-lipoxygenase inhibitor” (Chemical Science, 2018).
Values joined by “and” are separate entries in the source; they are usually repeats but may differ in a detail not shown here. Identical values can stand only once. Like-named read-outs stand apart in the source and are kept apart here.

Tests used:
[1] = molecular target: T1, 5-LO (Homo sapiens, UniProt P09917); assay: 5-LO inhibition assay, Cerep (Method A, indirect fluorogenic readout, Rhodamine 123); assay type: biochemical
T1 sequence (P09917 1-674): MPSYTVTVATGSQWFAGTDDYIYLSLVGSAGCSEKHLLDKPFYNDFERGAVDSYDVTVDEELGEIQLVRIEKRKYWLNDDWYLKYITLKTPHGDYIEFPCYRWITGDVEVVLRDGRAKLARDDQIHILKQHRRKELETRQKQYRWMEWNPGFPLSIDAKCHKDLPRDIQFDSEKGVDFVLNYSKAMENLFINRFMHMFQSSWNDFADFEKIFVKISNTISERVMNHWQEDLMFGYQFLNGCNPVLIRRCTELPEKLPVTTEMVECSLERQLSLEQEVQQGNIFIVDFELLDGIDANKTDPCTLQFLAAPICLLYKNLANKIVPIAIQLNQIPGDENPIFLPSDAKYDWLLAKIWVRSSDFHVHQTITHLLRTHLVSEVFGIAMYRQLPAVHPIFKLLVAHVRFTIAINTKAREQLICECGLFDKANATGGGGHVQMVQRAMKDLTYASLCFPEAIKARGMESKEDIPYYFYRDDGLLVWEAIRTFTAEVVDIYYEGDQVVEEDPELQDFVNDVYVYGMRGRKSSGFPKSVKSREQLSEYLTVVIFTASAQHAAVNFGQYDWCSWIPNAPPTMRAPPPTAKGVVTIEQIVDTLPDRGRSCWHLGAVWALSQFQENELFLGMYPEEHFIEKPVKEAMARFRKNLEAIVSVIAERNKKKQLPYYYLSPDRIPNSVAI

[2] = molecular target: EGFR (Homo sapiens, UniProt P00533); assay: ExpresS Diversity Kinase Profile, Cerep (LANCE): EGFR; assay type: biochemical
EGFR, sequence (P00533 25-1210): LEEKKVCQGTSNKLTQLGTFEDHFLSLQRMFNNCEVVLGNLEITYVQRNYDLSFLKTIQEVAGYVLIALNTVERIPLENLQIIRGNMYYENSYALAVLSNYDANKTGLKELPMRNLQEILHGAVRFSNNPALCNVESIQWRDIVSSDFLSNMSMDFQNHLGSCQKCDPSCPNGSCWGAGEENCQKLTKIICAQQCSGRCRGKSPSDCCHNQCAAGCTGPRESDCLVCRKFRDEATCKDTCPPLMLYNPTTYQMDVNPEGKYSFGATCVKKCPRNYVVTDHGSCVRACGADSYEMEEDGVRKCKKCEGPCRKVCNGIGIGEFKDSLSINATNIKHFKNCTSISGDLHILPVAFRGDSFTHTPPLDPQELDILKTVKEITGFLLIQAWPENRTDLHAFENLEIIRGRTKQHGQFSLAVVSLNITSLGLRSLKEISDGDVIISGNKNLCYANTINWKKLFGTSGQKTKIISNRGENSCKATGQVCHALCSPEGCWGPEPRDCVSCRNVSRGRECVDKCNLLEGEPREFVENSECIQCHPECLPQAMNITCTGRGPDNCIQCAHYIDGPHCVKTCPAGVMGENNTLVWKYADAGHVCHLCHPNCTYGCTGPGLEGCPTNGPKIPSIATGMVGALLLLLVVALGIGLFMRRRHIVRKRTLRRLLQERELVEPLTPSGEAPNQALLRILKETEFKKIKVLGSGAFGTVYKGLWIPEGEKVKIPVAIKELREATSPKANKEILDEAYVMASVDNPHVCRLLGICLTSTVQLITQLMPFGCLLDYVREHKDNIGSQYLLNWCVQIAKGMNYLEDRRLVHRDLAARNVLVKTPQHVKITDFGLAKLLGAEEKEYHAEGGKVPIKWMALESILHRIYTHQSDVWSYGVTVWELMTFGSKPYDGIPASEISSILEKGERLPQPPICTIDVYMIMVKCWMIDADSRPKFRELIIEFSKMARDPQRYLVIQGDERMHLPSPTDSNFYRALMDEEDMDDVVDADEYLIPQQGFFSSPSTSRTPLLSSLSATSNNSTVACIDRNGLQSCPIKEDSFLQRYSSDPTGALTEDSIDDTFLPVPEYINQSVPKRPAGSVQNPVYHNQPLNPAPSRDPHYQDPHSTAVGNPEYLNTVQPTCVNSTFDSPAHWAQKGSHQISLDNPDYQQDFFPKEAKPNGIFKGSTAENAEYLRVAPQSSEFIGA

[3] = molecular target: FGFR2 (Homo sapiens, UniProt P21802); assay: ExpresS Diversity Kinase Profile, Cerep (LANCE): FGFR2; assay type: biochemical
FGFR2, sequence (P21802 22-821): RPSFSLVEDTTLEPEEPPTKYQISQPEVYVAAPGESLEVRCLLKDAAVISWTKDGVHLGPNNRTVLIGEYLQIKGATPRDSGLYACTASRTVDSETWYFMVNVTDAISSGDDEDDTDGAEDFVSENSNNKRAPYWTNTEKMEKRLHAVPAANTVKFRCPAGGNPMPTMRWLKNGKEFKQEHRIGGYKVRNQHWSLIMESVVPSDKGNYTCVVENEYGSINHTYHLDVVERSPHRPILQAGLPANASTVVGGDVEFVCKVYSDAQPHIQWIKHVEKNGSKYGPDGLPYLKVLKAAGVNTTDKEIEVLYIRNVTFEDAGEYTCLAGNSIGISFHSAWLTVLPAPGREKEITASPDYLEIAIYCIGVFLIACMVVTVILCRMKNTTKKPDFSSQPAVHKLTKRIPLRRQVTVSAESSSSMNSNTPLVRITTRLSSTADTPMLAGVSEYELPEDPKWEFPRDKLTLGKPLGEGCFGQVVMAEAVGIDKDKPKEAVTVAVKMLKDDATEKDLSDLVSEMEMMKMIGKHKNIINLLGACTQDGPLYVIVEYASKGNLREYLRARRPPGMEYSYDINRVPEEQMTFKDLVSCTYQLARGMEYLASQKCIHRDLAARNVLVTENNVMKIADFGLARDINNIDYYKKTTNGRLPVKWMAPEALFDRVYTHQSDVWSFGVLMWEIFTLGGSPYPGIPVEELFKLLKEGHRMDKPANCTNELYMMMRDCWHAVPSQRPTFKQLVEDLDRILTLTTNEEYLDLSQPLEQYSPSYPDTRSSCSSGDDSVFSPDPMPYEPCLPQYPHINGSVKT

[4] = molecular target: Lck (Homo sapiens, UniProt P06239); assay: ExpresS Diversity Kinase Profile, Cerep (LANCE): Lck; assay type: biochemical
Lck, sequence (P06239 whole entry): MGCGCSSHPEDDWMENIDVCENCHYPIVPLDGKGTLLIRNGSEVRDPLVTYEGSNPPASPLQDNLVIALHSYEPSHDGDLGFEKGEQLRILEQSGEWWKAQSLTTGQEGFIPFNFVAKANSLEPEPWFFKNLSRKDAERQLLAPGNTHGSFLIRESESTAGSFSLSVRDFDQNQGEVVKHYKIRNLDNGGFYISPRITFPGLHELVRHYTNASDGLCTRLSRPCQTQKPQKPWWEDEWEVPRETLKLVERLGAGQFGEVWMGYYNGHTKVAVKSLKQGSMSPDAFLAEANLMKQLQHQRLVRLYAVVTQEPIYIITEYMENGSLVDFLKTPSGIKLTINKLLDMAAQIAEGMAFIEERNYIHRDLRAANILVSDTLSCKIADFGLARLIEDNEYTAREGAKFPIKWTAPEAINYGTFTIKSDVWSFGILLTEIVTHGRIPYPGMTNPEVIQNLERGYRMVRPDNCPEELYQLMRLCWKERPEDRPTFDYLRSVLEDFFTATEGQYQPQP

[5] = molecular target: CDK2 (Homo sapiens, UniProt P24941); assay: ExpresS Diversity Kinase Profile, Cerep (LANCE): CDK2; assay type: biochemical
[6] = molecular target: ERK2 (Homo sapiens, UniProt P28482); assay: ExpresS Diversity Kinase Profile, Cerep (LANCE): ERK2; assay type: biochemical
ERK2, sequence (P28482 whole entry): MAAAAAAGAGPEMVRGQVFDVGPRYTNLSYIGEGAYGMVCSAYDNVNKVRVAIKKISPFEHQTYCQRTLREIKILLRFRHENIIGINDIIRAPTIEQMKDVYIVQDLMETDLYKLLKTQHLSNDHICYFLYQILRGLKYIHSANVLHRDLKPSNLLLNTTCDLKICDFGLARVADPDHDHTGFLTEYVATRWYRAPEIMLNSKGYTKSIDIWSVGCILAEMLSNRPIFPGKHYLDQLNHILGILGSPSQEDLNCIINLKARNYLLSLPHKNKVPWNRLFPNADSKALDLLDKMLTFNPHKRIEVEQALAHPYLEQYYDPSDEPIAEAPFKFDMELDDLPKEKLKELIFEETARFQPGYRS

[7] = molecular target: CaMK2α (Homo sapiens, UniProt Q9UQM7); assay: ExpresS Diversity Kinase Profile, Cerep (LANCE): CaMK2α; assay type: biochemical
CaMK2α, sequence (Q9UQM7 whole entry): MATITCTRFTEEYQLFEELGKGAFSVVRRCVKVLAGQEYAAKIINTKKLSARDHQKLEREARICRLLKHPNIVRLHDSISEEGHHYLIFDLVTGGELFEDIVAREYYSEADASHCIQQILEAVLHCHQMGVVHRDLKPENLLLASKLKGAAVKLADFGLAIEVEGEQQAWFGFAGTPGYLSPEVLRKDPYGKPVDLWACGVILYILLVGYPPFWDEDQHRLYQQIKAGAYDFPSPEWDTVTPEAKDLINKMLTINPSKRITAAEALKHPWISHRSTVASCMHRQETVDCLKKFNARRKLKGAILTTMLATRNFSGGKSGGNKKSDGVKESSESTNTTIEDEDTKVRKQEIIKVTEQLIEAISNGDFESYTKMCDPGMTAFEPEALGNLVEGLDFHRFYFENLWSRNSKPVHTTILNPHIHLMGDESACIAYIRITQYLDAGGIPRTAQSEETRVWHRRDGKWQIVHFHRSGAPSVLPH

[8] = molecular target: MNK2 (Homo sapiens, UniProt Q9HBH9); assay: ExpresS Diversity Kinase Profile, Cerep (LANCE): MNK2; assay type: biochemical
MNK2, sequence (Q9HBH9 whole entry): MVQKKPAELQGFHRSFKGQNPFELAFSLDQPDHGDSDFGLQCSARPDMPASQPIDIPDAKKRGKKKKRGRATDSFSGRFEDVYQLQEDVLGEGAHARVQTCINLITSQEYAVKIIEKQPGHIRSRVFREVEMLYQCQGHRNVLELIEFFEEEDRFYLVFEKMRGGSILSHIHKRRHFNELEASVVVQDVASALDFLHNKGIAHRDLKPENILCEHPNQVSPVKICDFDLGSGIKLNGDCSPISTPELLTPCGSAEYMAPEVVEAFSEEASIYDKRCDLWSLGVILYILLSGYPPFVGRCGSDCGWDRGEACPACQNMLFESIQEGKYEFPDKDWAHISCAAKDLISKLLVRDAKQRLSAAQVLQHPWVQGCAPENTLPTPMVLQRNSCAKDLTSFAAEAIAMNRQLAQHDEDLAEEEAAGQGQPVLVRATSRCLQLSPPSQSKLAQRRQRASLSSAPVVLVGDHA

[9] = molecular target: T2, 12-LO (Homo sapiens, UniProt P18054); assay: 12-LO inhibition in intact human neutrophils
T2 sequence (P18054 1-663): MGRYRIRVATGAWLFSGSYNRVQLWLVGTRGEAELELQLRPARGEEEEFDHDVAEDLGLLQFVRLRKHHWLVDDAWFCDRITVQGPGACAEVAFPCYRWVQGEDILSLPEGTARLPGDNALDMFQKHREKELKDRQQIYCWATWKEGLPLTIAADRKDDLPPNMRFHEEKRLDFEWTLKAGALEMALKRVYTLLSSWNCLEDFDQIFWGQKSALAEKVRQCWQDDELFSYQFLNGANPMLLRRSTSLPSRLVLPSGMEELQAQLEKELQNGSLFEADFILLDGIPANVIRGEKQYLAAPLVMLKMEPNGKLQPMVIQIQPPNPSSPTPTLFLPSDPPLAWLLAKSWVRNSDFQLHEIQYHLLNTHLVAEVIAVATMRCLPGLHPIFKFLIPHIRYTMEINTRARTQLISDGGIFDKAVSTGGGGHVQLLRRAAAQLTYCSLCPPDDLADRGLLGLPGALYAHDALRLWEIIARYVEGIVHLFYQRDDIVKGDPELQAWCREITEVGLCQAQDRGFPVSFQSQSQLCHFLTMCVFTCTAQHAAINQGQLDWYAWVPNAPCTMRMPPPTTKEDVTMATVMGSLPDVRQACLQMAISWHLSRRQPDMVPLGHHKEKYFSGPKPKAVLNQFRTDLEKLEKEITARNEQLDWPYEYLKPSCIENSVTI

[10] = molecular target: T1, 5-LO; assay: 5-LO product formation in neutrophil homogenates
[11] = test system: Escherichia coli K12; assay: Minimum inhibitory concentration assay, Escherichia coli; conditions: concentrations up to 50 µM
[12] = molecular target: EP2 (Homo sapiens, UniProt P43116); assay: EP2 functional antagonist assay, Cerep (PGE2 100 nM, cAMP)
EP2, sequence (P43116 whole entry): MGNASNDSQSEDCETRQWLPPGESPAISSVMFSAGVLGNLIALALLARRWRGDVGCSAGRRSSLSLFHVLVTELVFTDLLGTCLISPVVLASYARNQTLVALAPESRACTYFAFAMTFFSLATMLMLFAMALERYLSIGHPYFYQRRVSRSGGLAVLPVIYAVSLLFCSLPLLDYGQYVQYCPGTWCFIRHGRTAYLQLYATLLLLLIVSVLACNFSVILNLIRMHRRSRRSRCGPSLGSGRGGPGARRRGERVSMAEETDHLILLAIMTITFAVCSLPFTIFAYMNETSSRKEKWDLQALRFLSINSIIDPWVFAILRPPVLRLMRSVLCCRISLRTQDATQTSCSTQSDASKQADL

[13] = molecular target: T3, EP1 (Homo sapiens, UniProt P34995); assay: EP1 functional antagonist assay, Cerep (PGE2 3 nM, intracellular Ca2+)
T3 sequence (P34995 1-402): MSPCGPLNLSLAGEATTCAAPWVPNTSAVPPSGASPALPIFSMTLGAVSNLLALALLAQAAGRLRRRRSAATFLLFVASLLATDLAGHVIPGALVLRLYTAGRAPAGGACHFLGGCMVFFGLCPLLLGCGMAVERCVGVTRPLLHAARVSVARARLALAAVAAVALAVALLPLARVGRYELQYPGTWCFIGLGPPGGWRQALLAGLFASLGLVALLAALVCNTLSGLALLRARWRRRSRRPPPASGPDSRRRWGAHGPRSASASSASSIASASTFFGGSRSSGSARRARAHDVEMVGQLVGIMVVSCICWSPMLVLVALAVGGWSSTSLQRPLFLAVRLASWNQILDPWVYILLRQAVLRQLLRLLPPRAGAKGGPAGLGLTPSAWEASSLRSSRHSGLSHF

[14] = n = 2, read-out: % Inhibition of control values, Mean
[15] = read-out: % Inhibition of control values, 1st measurement
[16] = read-out: % Inhibition of control values, 2nd measurement
[17] = Flag: Interference, read-out: % Inhibition of control values, 1st measurement
[18] = Flag: Interference, read-out: % Inhibition of control values, 2nd measurement
[19] = n = 2, Flag: Interference, read-out: % Inhibition of control values, Mean

With `CC1(C)CCC2=C(O1)c1ccccc1C(=O)C2=O` [β-Lapachone] the “ligand efficiency (LE)” value ([1]; 5-LO) was 0.44, the inhibition at 5 µM ([1]; 5-LO, n = 2, read-out: % inhibition of control values, Mean) was 102% and the inhibition at 5 µM ([1]; 5-LO, read-out: % inhibition of control values, 1st measure) was 103%. The inhibition at 5 µM ([1]; 5-LO, read-out: % inhibition of control values, 2nd measure) was 99.8%, the inhibition at 150 µM ([1]; 5-LO, 150 µM, read-out: % inhibition of control values, 1st measure) was 98.4% and the inhibition at 150 µM ([1]; 5-LO, 150 µM, read-out: % inhibition of control values, 2nd measure) was 92.9%. For the same compound, the IC50 ([1]; 5-LO, indirect fluorogenic readout, read-out: Experimental –log(IC50 or KD) (converted)) was 2.51 µM, the “ligand efficiency (LE)” value ([1]; 5-LO, listed as 1) was over 0.30 and the IC50 ([1]; IC50, 5-LO, indirect fluorescence detection (Cerep), n = 2) was 2.1 µM. The inhibition at 150 µM ([1]; read-out: % inhibition of control values, Mean) was 95.7%, the inhibition at 150 µM [2, 14] was 67.1% and the inhibition at 150 µM [2, 15] was 68.5%. The inhibition at 150 µM [2, 16] was 65.7%, the inhibition at 150 µM [3, 17] was 44.8% and the inhibition at 150 µM [3, 18] was 55.2%. The inhibition at 150 µM [3, 19] was 50%, the inhibition at 150 µM [4, 17] was -32.6% and the inhibition at 150 µM [4, 18] was -37.7%. The inhibition at 150 µM [4, 19] was -35.2%, the inhibition at 150 µM [5, 14] was 78.2% and the inhibition at 150 µM [5, 15] was 79.4%. For the same compound, the inhibition at 150 µM [5, 16] was 77.1%, the inhibition at 150 µM [6, 14] was 45.9% and the inhibition at 150 µM [6, 15] was 44.8%. For the same compound, the inhibition at 150 µM [6, 16] was 46.9%, the inhibition at 150 µM [7, 14] was 54.8% and the inhibition at 150 µM [7, 15] was 61.5%. It also gave an inhibition at 150 µM [7, 16] of 48%, an inhibition at 150 µM [8, 14] of 80.1% and an inhibition at 150 µM [8, 15] of 78.1%. For the same compound, the inhibition at 150 µM [8, 16] was 82.1%, the IC50 [9] was over 30 µM and the IC50 ([10]; IC50 (with DTT), neutrophil homogenates with 1 mM DTT, n = 3) was 0.09 µM and 0.085 µM. For the same compound, the IC50 ([10]; IC50 (without DTT), neutrophil homogenates without DTT, n = 3) was 5.2 µM, the IC50 ([10]; IC50, neutrophil homogenates with 1 mM dithiothreitol) was 0.0855 µM and the “phenotypic effects on Escherichia coli” value [11] was “No phenotypic effects”. For the same compound, the IC50 [12] was about 100 µM and the IC50 [13] was over 100 µM.
